Laboratory results from PubChem BioAssay AID248 (DTP/NCI, 2004).
“And” between values parts separate entries of the source, which are not always exact repeats. Equal values may be shown once. Toxic doses and inconclusive results are not listed. Cut-off read from the data, not from the text of the source: active = T/C of 150% or more; inactive = T/C below 125%.

Tested on: L1210 leukemia ip in BDF1 mice, survival T/C
Assay: NCI In Vivo Anticancer Drug Screen. Data for tumor model L1210 Leukemia (intraperitoneal) in B6D2F1 (BDF1) mice
Details: endpoint: mean survival time, higher = longer survival
Method in brief: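 Tumor was transplanted into mice, which were then dosed with test compound or vehicle alone. Survival was recorded for each group, and the treated figure was expressed relative to the control figure.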

[1] = dose: 100.0 mg/kg/injection, schedule: Q04DX003 (ip), vehicle: saline
[2] = dose: 200.0 mg/kg/injection, schedule: Q04DX003 (ip), vehicle: saline
[3] = dose: 100.0 mg/kg/injection, schedule: Q04DX003 (ip), vehicle: Klucel (hydroxypropylcellulose) (HPC)
[4] = dose: 200.0 mg/kg/injection, schedule: Q04DX003 (ip), vehicle: Klucel (hydroxypropylcellulose) (HPC)
[5] = dose: 100.0 mg/kg/injection, schedule: Q01DX001 (ip), vehicle: other
[6] = dose: 100.0 mg/kg/injection, schedule: Q01DX009 (ip), vehicle: Klucel (hydroxypropylcellulose) (HPC)
[7] = dose: 200.0 mg/kg/injection, schedule: Q01DX001 (ip), vehicle: other
[8] = dose: 200.0 mg/kg/injection, schedule: Q01DX009 (ip), vehicle: Klucel (hydroxypropylcellulose) (HPC)
[9] = dose: 400.0 mg/kg/injection, schedule: Q01DX001 (ip), vehicle: other
[10] = dose: 400.0 mg/kg/injection, schedule: Q01DX009 (ip), vehicle: Klucel (hydroxypropylcellulose) (HPC)

Measured: T/C

CCC1(CCC#N)CCc2[nH]c3ccccc3c2C1=O (stereo unspecified)
inactive: dose: 100.0 mg/kg/injection, schedule: Q04DX002 (ip), vehicle: saline with Tween-80 108 % of control | dose: 200.0 mg/kg/injection, schedule: Q04DX002 (ip), vehicle: saline with Tween-80 94 % of control | dose: 400.0 mg/kg/injection, schedule: Q04DX002 (ip), vehicle: saline with Tween-80 87 % of control

CCOC(=O)c1ccc(N(C=O)CCC(=O)CCl)cc1
inactive: dose: 3.0 mg/kg/injection, schedule: Q01DX009 (ip), vehicle: saline 104 % of control | dose: 5.0 mg/kg/injection, schedule: Q01DX001 (ip), vehicle: saline 95 % of control | dose: 6.0 mg/kg/injection, schedule: Q01DX009 (ip), vehicle: saline 100 % of control | dose: 10.0 mg/kg/injection, schedule: Q01DX001 (ip), vehicle: saline 102 % of control | dose: 12.0 mg/kg/injection, schedule: Q01DX009 (ip), vehicle: saline 94 % of control | dose: 12.5 mg/kg/injection, schedule: Q01DX009 (ip), vehicle: carboxymethylcellulose (CMC) 107 % of control | dose: 20.0 mg/kg/injection, schedule: Q01DX001 (ip), vehicle: saline 104 % of control | dose: 25.0 mg/kg/injection, schedule: Q01DX009 (ip), vehicle: carboxymethylcellulose (CMC) 107 % of control | dose: 40.0 mg/kg/injection, schedule: Q01DX001 (ip), vehicle: saline 106 % of control

CCOC(=O)c1cnc(C)nc1Nc1ccccc1Cl
inactive: dose: 50.0 mg/kg/injection, schedule: Q04DX003 (ip), vehicle: saline 105 % of control | [1] 104 % of control | [2] 98 % of control and 108 % of control

N#CC1CNC(=S)N=C1c1ccccc1 (stereo unspecified)
inactive: [3] 100 % of control | [4] 95 % of control

COc1ccc2c(c1)C(=O)c1ccccc1-2
inactive: dose: 100.0 mg/kg/injection, schedule: Q04DX003 (ip), vehicle: saline with Tween-80 101 % of control | dose: 200.0 mg/kg/injection, schedule: Q04DX003 (ip), vehicle: saline with Tween-80 98 % of control | dose: 400.0 mg/kg/injection, schedule: Q04DX003 (ip), vehicle: saline with Tween-80 109 % of control

O=c1cc(CSCCO)[nH]c(=O)[nH]1
inactive: [1] 102 % of control | [2] 96 % of control | dose: 400.0 mg/kg/injection, schedule: Q04DX003 (ip), vehicle: saline 104 % of control

OC(c1ccc(OCc2ccccc2)cc1)c1nccc2ccccc12 (stereo unspecified)
inactive: dose: 100.0 mg/kg/injection, schedule: Q01DX001 (ip), vehicle: acetone 88 % of control

COC(=O)CCC(NC(=O)CCCNC(=O)OCc1ccccc1)C(=O)OC (stereo unspecified)
inactive: dose: 100.0 mg/kg/injection, schedule: Q01DX001 (ip), vehicle: Klucel (hydroxypropylcellulose) (HPC) 96 % of control | [5] 97 % of control | [6] 100 % of control | [3] 94 % of control | dose: 200.0 mg/kg/injection, schedule: Q01DX001 (ip), vehicle: Klucel (hydroxypropylcellulose) (HPC) 98 % of control | [7] 100 % of control | [8] 97 % of control | [4] 89 % of control | dose: 400.0 mg/kg/injection, schedule: Q01DX001 (ip), vehicle: Klucel (hydroxypropylcellulose) (HPC) 89 % of control | [9] 103 % of control | [10] 100 % of control | dose: 400.0 mg/kg/injection, schedule: Q04DX003 (ip), vehicle: Klucel (hydroxypropylcellulose) (HPC) 86 % of control

COC(=O)NC(C)(NC(=O)OC)C(=O)OC
inactive: dose: 100.0 mg/kg/injection, schedule: Q01DX009 (ip), vehicle: saline with Tween-80 104 % of control | dose: 200.0 mg/kg/injection, schedule: Q01DX009 (ip), vehicle: saline with Tween-80 106 % of control | dose: 400.0 mg/kg/injection, schedule: Q01DX009 (ip), vehicle: saline with Tween-80 97 % of control

O=C(NNC(=O)c1ccccc1)c1ccccc1
inactive: dose: 100.0 mg/kg/injection, schedule: Q04DX002 (ip), vehicle: Klucel (hydroxypropylcellulose) (HPC) 101 % of control | dose: 200.0 mg/kg/injection, schedule: Q04DX002 (ip), vehicle: Klucel (hydroxypropylcellulose) (HPC) 101 % of control | dose: 400.0 mg/kg/injection, schedule: Q04DX002 (ip), vehicle: Klucel (hydroxypropylcellulose) (HPC) 101 % of control

O/N=C\c1cc2c3c(c1)CCCN3CCC2
inactive: [6] 95 % of control | [8] 91 % of control | [10] 86 % of control

CC(/C=N\N)=N\N
inactive: dose: 15.0 mg/kg/injection, schedule: Q01DX Z (ip), vehicle: saline 91 % of control | dose: 15.0 mg/kg/injection, schedule: Q01DX Z (oral), vehicle: saline 101 % of control | dose: 30.0 mg/kg/injection, schedule: Q01DX Z (ip), vehicle: saline 108 % of control | dose: 30.0 mg/kg/injection, schedule: Q01DX Z (oral), vehicle: saline 116 % of control | dose: 60.0 mg/kg/injection, schedule: Q01DX Z (ip), vehicle: saline 91 % of control

COC(=O)c1cc(N2CC2)nc(SC)n1
inactive: dose: 6.0 mg/kg/injection, schedule: Q01DX Z (ip), vehicle: methylcellulose (MC) 96 % of control | dose: 12.0 mg/kg/injection, schedule: Q01DX Z (ip), vehicle: methylcellulose (MC) 96 % of control

CCOC(=O)CN(c1ccccc1-c1ccccc1)S(=O)(=O)c1ccc(C)cc1
inactive: dose: 50.0 mg/kg/injection, schedule: Q01DX001 (ip), vehicle: other 92 % of control | [5] 89 % of control | [7] 101 % of control | [9] 101 % of control
